Each compound was assayed on Panel (Carcinoma cell lines) (assay: Cytotoxic activity against human cancer cell lines was determined).
Type: functional
In the case of `CN(C)CCC1(C2=CCCC2)CC/C(=C\c2ccccc2)C1=O.Cl` (stereo unspecified), the GI50 is reported as 16.2 µM and the “Log TCI” value is reported as -4.49. For `CN(C)CCC1(C2=CCCC2)CC/C(=C\c2ccc(Cl)cc2)C1=O.Cl` (stereo unspecified), the GI50 was 7.08 µM, the LC50 was 44.7 µM and the “Log TCI” value was -4.72. `COc1ccc(/C=C2\CCC(CCN(C)C)(C3=CCCC3)C2=O)cc1Br.Cl` (stereo unspecified) was tested, and the GI50 was 4.47 µM, the LC50 was 35.5 µM and the “Log TCI” value was -4.89. In the case of `COc1cccc(/C=C2\CCC(CCN(C)C)(C3=CCCC3)C2=O)c1.Cl` (stereo unspecified), the GI50 is reported as 15.5 µM and the “Log TCI” value is reported as -4.52. `CN(C)CCC1(C2=CCCC2)CC/C(=C\c2ccc3c(c2)OCO3)C1=O.Cl` (stereo unspecified) was tested, and the GI50 was 14.8 µM, the LC50 was 60.3 µM and the “Log TCI” value was -4.52. For `COc1ccc(/C=C2\CCC(CCN(C)C)(C3=CCCC3)C2=O)cc1.Cl` (stereo unspecified), the GI50 was 17.8 µM and the “Log TCI” value was -4.42. `CN(C)CCC1(C2=CCCC2)CC/C(=C\c2ccccc2Cl)C1=O.Cl` (stereo unspecified) was tested, and the GI50 was 11.7 µM, the LC50 was 60.3 µM and the “Log TCI” value was -4.56. In the case of `COc1ccccc1/C=C1\CCC(CCN(C)C)(C2=CCCC2)C1=O.Cl` (stereo unspecified), the GI50 is reported as 15.8 µM, the LC50 is reported as 70.8 µM and the “Log TCI” value is reported as -4.43.
